Here are results for one compound from paper PMC4498954 (Inorganic chemistry, 2010).

This test has as its target methemoglobin (metHb, human hemoglobin, Fe(III) form) (Homo sapiens, UniProt P68871+P69905).

methemoglobin (metHb, human hemoglobin, Fe(III) form), sequence (P69905 2-142): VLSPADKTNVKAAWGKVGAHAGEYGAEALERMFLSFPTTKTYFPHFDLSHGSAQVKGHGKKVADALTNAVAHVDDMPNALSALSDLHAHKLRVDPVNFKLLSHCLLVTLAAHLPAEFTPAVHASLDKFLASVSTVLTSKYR
methemoglobin (metHb, human hemoglobin, Fe(III) form), sequence (P68871 2-147): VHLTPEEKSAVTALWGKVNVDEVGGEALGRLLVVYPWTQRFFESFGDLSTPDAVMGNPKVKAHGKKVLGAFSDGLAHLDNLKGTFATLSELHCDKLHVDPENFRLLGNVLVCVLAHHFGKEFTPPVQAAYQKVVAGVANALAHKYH

Consider `O=NO` [nitrite], for which the affinity, expressed as Kd, was 1240 ± 500 µM.

As usually defined, the Kd is a measure of binding affinity in units of concentration.
